This note sets out measurements from patent US20260294871A1, “PHARMACEUTICAL COMBINATIONS AND COMPOSITIONS THEREOF COMPRISING ANTIBACTERIAL AGENTS” (priority 2023, published 2026).

Assay [1] concerns all grouped isolates from India. The assay can be described thus: MIC by broth microdilution against all grouped isolates from India. Type of assay: cell-based, resistant bacterial strains. The procedure:
(§1) In a typical study MIC tests were performed by broth microdilution in line with CLSI susceptibility testing standards. Bacterial inocula were prepared at ca. 1×10^6 CFU/mL by diluting 100-fold a 0.5 McFarland suspension in CA-MHB with TES. Microtiter plate wells containing 50 μL of antibacterial solutions at 2×the final concentrations were diluted 2-fold with 50 μL of inoculum to give a final inoculum of ca. 5×10^5 CFU/mL and desired test concentrations of antibacterial agents. Test microtiter plates were incubated according to CLSI guidelines and read visually. MIC values corresponded to the first well with no visible growth.
There was a marked improvement in antibacterial activity, compared to MEM alone, observed for the triple combinations, for MEM/AVI [4 mg/L]/EDTA [10 mM] and MEM/AVI [4 mg/L]/EDTA [20 mM], the reduction in MIC90 was 0.06 μg/mL and ≤0.002 μg/mL, respectively.
For orientation: Broth dilution looks for growth in wells or tubes with falling amounts of substance.

Assay [2] concerns Enterobacterales isolates from India. The assay can be described thus: MIC by broth microdilution against Enterobacterales. Type of assay: cell-based, Enterobacteriaceae. The procedure: as §1
The results of antibacterial activity of amikacin, Ceftazidime-avibactam, Ceftriaxone with sulbactam and EDTA, Meropenem and Meropenem with avibactam and EDTA against highly resistant strains of Enterobacteriaceae are given in Table 2.

The next assay deals with Escherichia coli. The assay can be described thus: MIC by broth microdilution against E. coli. Type of assay: cell-based. The procedure:
as §1
The results of antibacterial activity of amikacin, Ceftazidime-avibactam, Ceftriaxone with sulbactam and EDTA, Meropenem and Meropenem with avibactam and EDTA against highly resistant strains of Escherichia coli are given in Table 3. […] There was a marked improvement in antibacterial activity, compared to MEM alone, observed for the triple combination MEM/AVI [4 mg/L]/EDTA [10 mM] with a MIC90 at 0.004 μg/mL

Assay [3] deals with Stenotrophomonas maltophilia. The assay is described as follows: MIC by broth microdilution against Stenotrophomonas maltophilia. Format: cell-based. The following applies: highly resistant strains. The procedure:
as §1
The results of antibacterial activity of amikacin, Ceftazidime-avibactam, Ceftriaxone with sulbactam and EDTA, Meropenem and Meropenem with avibactum and EDTA against highly resistant strains of Stenotrophomonas maltophilia are given in Table 8.

Where two headings read alike, the source gives them in different places.

The term MIC50 denotes an inhibitory concentration at the 50% level, which refers to growth in some studies and to a panel of isolates in others. What is called MIC90 is the lowest concentration that inhibits either 90% of growth or 90% of the strains tested, depending on the study.

In the case of `C[C@@H](O)[C@H]1C(=O)N2C(C(=O)O)=C(S[C@@H]3CN[C@H](C(=O)N(C)C)C3)[C@H](C)[C@H]12` [Meropenem, (4R,5S,6S)-3-(((3S,5S)-5-(dimethylcarbamoyl)pyrrolidin-3-yl)thio)-6-((R)-1-hydroxyethyl)-4-methyl-7-oxo-1-azabicyclo[3.2.0]hept-2-ene-2-carboxylic acid], the MIC50 in assay [1] is more than 32 mg/L; in assay [1] (all grouped isolates (606)) it was more than 32 mg/L; in assay [2], more than 32 mg/L; in assay [2] (MEM-NS isolates (n=250)) it was more than 32 mg/L; in assay [2] (n=301) it was more than 32 mg/L; in the assay with Escherichia coli (Escherichia coli, highly resistant strains, read-out: MIC50) it was more than 32 mg/L. Further, the MIC50 with Escherichia coli (MEM-NS isolates (n=105)) is more than 32 mg/L; in the assay on Escherichia coli (highly resistant strains), more than 32 mg/L; in assay [3] (Stenotrophomonas maltophilia, read-out: MIC50), more than 32 mg/L; in assay [3] it was more than 32 mg/L. In addition, the MIC90 in assay [1], in assay [1] (MEM-NS isolates (n=534)), in assay [1] (all grouped isolates (606)), in assay [2], in assay [2] (MEM-NS isolates (n=250)) and in assay [2] (n=301) was more than 32 mg/L each time. The MIC90 with Escherichia coli (Escherichia coli, highly resistant strains, read-out: MIC90) is more than 32 mg/L; in the assay with Escherichia coli (MEM-NS isolates (n=105)) it was more than 32 mg/L; in the assay with Escherichia coli (highly resistant strains) it was more than 32 mg/L; in assay [3] (Stenotrophomonas maltophilia, read-out: MIC90), more than 32 mg/L; in assay [3] it was more than 32 mg/L. Also, the “isolates resistant to meropenem (MEM NS)” value in assay [2] (250 out of 301) is recorded as 82.7%. In addition, in the assay with Escherichia coli (n=105), the MEM-NS isolates stood at 88.2%.
